Measured values: patent US20250289814A1, “COMPOUNDS AS PARP1 INHIBITIORS” (NINGBO NEWBAY TECHNOLOGY DEVELOPMENT CO., LTD., priority 2022, published 2025)
Like-named read-outs stand apart in the source and are kept apart here.

Columns and labels:
[1] = target: Recombinant full length PARP1 (Homo sapiens (Human), UniProt P09874); assay: FP assay PARP1 (fluorescence anisotropy probe displacement); format: binding; settings: 20 nM PARP1, 8 nM fluorescent probe, 4 h, room temperature
Method: (§1) FP experiments were carried out at room temperature using no-binding black 384-well microplates. Recombinant full length PARP1 and PARP2 proteins produced in house were diluted to 20 nM and 60 nM, respectively, with assay buffer (50 mM Tris pH 8, 0.001% Triton X100, 10 mM MgCl2, and 150 mM NaCl) and incubated for 4 h with an equivalent volume of the 8 nM fluorescent probe diluted with assay buffer. Fluorescence anisotropy of the probe when bound to the proteins was measured in the presence of test compounds or solvent control and the effect on anisotropy determined. Polarization values were read using an Envision plate reader using excitation and emission wavelengths of 590 and 630 nm, respectively. All FP values are expressed as mP units. Inhibition ratio was calculated using readout (mP) following the equation as below: […]
(§2) % inhibition values for different test compound concentrations were calculated and fitted to a four parameter logistic plot in order to determine the IC50 value using XLfit.

[2] = target: Recombinant full length PARP2 (Homo sapiens (Human), UniProt Q9UGN5); assay: FP assay PARP2 (fluorescence anisotropy probe displacement); format: binding; settings: 60 nM PARP2, 8 nM fluorescent probe, 4 h, room temperature
Recombinant full length PARP2, sequence (Q9UGN5 whole entry): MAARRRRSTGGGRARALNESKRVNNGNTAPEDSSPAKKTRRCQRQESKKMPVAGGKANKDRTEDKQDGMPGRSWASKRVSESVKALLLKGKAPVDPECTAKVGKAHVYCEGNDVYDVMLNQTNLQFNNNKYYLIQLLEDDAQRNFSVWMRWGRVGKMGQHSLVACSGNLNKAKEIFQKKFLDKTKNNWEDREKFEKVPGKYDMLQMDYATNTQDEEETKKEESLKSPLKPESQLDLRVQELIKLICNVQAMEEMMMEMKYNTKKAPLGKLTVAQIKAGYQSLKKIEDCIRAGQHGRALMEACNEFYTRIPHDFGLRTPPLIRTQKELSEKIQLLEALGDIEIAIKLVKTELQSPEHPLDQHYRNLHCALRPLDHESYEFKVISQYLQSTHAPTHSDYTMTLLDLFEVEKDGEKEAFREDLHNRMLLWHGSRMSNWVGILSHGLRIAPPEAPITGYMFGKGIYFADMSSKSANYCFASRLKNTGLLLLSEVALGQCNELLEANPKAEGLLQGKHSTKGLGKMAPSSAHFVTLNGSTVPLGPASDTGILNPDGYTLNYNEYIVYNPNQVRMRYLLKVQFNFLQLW
Method: as §1, §2

[3] = system: DLD1-BRCA2−/− cells; assay: Cell proliferation assay in DLD1-BRCA2−/− cell lines (CellTiter-Glo, 7 days); format: cell-based
Method: BRCA2 (−/−) cells cultured in RPMI 1640+10% FBS were harvested and diluted to a density of 1×10^4 cells/mL and 2×10^4 cells/mL, respectively. Cells (40 μL/well) were seeded into 384-well cell culture plates. Plates were covered and incubated at 37° C., 5% CO2 overnight prior to the addition of test compounds or vehicle. The plates were then incubated at 37° C., 5% CO2 for 7 days. On day 8, the plates were removed from incubator and equilibrated at room temperature for 15 minutes. CellTiter-Glo (40 μL, at 1:1 to culture medium) is added into each well and the plates were placed at room temperature for 30 min. Luminescence was measured using an Envision plate reader. The resultant data were analysed as follows; where LC is culture medium without cells:
% inhibition values for different test compound concentrations were calculated and fitted to a four parameter logistic plot in order to determine the IC50 value using XLfit

[4] = Caco2 (A-B/B-A) permeability; format: in vitro ADME; settings: human; for efflux ratio at 120 min, 5 μM: Caco-2, pH 7.4, PappB-A/PappA-B, read-out: Caco2 efflux ratio (ER); for Papp A→B at 120 min, 5 μM: Caco-2, pH 7.4, apical-to-basolateral, read-out: Caco2 A-B apparent permeability (Papp); for Papp A→B at 120 min, 5 μM / Papp B→A at 120 min, 5 μM: HBSS pH 7.4, 120 min, 37° C.; for Papp B→A at 120 min, 5 μM: Caco-2, pH 7.4, basolateral-to-apical, read-out: Caco2 B-A apparent permeability (Papp)
Method: The apical-to-basolateral (A-B) and basolateral-to-apical (B-A) transport of 5 μM test compounds in HBSS (10 mM HEPES, pH 7.4) was measured across Caco-2 cell monolayers (cells sourced from American Type Culture Collection, Manassas, Virgina). Duplicate incubations were performed at approximately 37° C. for 120 min, with functionality of the test system confirmed using 5 μM propranolol and digoxin as control compounds. Aliquots (50 μL) from both apical and basolateral wells were transferred into two fresh 96-well plates and quenched with acetonitrile solution containing analytical internal standards. Samples were vortexed mixed, centrifuged and a 100 μL aliquot of the resulting supernatant mixed with an equal volume of ultra-pure water prior to analysis by UPLC-MS/MS. The concentrations of test compound and control compounds in the incubation medium of donor and receiver compartments at the beginning and the end of the incubation period were used to calculate the apparent permeability (Papp) from A-B and B-A directions. The efflux ratio (ER) was expressed as PappB-A/PappA-B. The integrity of the cell monolayers after 2 hours incubation was confirmed using the marker reagent Lucifer yellow.

Recombinant full length PARP1, sequence (P09874 whole entry): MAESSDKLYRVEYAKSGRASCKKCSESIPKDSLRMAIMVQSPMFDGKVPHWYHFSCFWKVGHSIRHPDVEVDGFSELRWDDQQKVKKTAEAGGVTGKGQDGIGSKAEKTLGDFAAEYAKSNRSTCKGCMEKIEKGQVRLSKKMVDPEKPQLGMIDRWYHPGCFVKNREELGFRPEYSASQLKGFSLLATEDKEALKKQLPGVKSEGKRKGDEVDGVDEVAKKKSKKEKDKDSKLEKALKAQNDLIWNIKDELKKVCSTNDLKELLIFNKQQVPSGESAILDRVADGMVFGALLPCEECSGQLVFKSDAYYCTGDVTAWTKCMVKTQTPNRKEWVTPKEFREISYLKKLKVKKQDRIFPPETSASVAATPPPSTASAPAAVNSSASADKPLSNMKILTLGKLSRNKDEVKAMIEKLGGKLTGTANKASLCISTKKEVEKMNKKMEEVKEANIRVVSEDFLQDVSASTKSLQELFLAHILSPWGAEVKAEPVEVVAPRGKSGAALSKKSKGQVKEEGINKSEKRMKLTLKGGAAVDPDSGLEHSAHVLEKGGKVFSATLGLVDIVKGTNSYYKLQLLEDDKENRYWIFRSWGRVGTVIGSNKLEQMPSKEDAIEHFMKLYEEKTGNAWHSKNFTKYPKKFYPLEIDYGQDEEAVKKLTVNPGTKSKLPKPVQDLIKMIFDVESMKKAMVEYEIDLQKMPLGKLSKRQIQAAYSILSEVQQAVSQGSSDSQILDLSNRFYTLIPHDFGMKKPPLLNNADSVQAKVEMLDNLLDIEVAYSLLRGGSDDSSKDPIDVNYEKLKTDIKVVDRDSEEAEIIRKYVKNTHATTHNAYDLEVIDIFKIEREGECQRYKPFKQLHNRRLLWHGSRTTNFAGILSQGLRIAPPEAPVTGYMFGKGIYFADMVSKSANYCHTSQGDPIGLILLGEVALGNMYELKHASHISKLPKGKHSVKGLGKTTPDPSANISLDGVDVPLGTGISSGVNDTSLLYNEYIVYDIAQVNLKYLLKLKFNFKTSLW

IC50 [1] [µM]	IC50 [2] [µM]	IC50 ([3]; Homo sapiens, DLD-1, 168 h) [µM]	efflux ratio at 120 min, 5 μM [4]	Papp A→B at 120 min, 5 μM [4] [×10⁻⁶ cm/s]	Papp B→A at 120 min, 5 μM [4] [×10⁻⁶ cm/s]	IC50 [3] [µM]	SMILES
0.0059	3.76	0.0122					CCc1cc2ncc(C(C)N3CC(Oc4ccc(C(=O)NC)nc4)C3)cc2[nH]c1=O (racemic) [Compound 43, 5-((1-(1-(7-ethyl-6-oxo-5,6-dihydro-1,5-naphthyridin-3-yl)ethyl)azetidin-3-yl)oxy)-N-methylpicolinamide]
0.0352	> 10	0.0189	2.09	14.9	31.2		CCc1nc2ccc([C@H](C)N3CC(Oc4ccc(C(=O)NC)nc4)C3)cc2[nH]c1=O (single isomer, unassigned) [Compound 52, (enantiomer 1 or 2)-5-((1-(1-(2-ethyl-3-oxo-3,4-dihydroquinoxalin-6-yl)ethyl)azetidin-3-yl)oxy)-N-methylpicolinamide]
0.011		0.0109	3.01	8.54	25.8		CCc1nc2ccc([C@H](C)N3CC(Oc4ccc(C(=O)NC)nc4F)C3)cc2[nH]c1=O (single isomer, unassigned) [Compound 56, (enantiomer 1 or 2)-5-((1-(1-(2-ethyl-3-oxo-3,4-dihydroquinoxalin-6-yl)ethyl)azetidin-3-yl)oxy)-6-fluoro-N-methylpicolinamide]
0.0643	> 10					> 1	CNC(=O)c1ccc(O[C@@H]2CCN(Cc3cnc4cc(C5CC5)c(=O)[nH]c4c3)C2)cn1 (single isomer, unassigned) [Compound 60, (enantiomer 1 or 2)-5-((1-((7-cyclopropyl-6-oxo-5,6-dihydro-1,5-naphthyridin-3-yl)methyl)pyrrolidin-3-yl)oxy)-N-methylpicolinamide]
0.00662	> 10					0.0407	CNC(=O)c1ccc(O[C@@H]2CCN(Cc3cnc4cc(C5CC5)c(=O)[nH]c4c3)C2)cn1 (single isomer, unassigned) [Compound 61, (enantiomer 1 or 2)-5-((1-((7-cyclopropyl-6-oxo-5,6-dihydro-1,5-naphthyridin-3-yl)methyl)pyrrolidin-3-yl)oxy)-N-methylpicolinamide]
0.0043	> 10	0.221					CCc1cc2ncc(CN3CC(N(C)c4ccc(C(=O)NC)nc4)C3)cc2[nH]c1=O [Compound 3, 5-((1-((7-ethyl-6-oxo-5,6-dihydro-1,5-naphthyridin-3-yl)methyl)azetidin-3-yl)(methyl)amino)-N-methylpicolinamide]
0.0078	7.04	0.207					CCc1cc2ncc(CN3CCC(Cc4ccc(C(=O)NC)nc4)C3)cc2[nH]c1=O (stereo not shown) [Compound 7, 5-((1-((7-ethyl-6-oxo-5,6-dihydro-1,5-naphthyridin-3-yl)methyl)pyrrolidin-3-yl)methyl)-N-methylpicolinamide]
0.0066	> 10	0.0486					CNC(=O)c1ccc(OC2CCN(Cc3cnc4cc(C5CC5)c(=O)[nH]c4c3)C2)cn1 (stereo not shown) [Compound 14, 5-((1-((7-cyclopropyl-6-oxo-5,6-dihydro-1,5-naphthyridin-3-yl)methyl)pyrrolidin-3-yl)oxy)-N-methylpicolinamide]
0.018	> 10	0.195					CCc1cc2ncc(CN3CCC(Oc4ccc(C(=O)NC)nc4)CC3)cc2[nH]c1=O [Compound 15, 5-((1-((7-ethyl-6-oxo-5,6-dihydro-1,5-naphthyridin-3-yl)methyl)piperidin-4-yl)oxy)-N-methylpicolinamide]
0.0061	> 10	> 1					CCc1cc2ncc(C(C)N3CC(Oc4ccc(C(=O)NC)nc4C)C3)cc2[nH]c1=O (stereo not shown) [Compound 19, 5-((1-(1-(7-ethyl-6-oxo-5,6-dihydro-1,5-naphthyridin-3-yl)ethyl)azetidin-3-yl)oxy)-N,6-dimethylpicolinamide]
0.0035	4.81	0.0172					CCc1cc2ncc(C(C)N3CC(Oc4ccc(C(=O)NC)nc4F)C3)cc2[nH]c1=O (stereo not shown) [Compound 21, 5-((1-(1-(7-ethyl-6-oxo-5,6-dihydro-1,5-naphthyridin-3-yl)ethyl)azetidin-3-yl)oxy)-6-fluoro-N-methylpicolinamide]
0.0073	> 10	0.542					CCc1cc2ncc(CN3C[C@H](Oc4ccc(C(=O)NC)nc4)[C@@H](F)C3)cc2[nH]c1=O [Compound 24, 5-(((3S,4S)-1-((7-ethyl-6-oxo-5,6-dihydro-1,5-naphthyridin-3-yl)methyl)-4-fluoropyrrolidin-3-yl)oxy)-N-methylpicolinamide]
0.0096	> 10	0.0079					CCc1cc2ncc(CN3CC[C@@H](Oc4ccc(C(=O)NC)nc4F)C3)cc2[nH]c1=O [Compound 29, (R)-5-((1-((7-ethyl-6-oxo-5,6-dihydro-1,5-naphthyridin-3-yl)methyl)pyrrolidin-3-yl)oxy)-6-fluoro-N-methylpicolinamide]
0.0044	> 10	0.256					CCc1cc2ncc(CN3CC[C@@H](Oc4ccc(C(=O)NC)nc4C)C3)cc2[nH]c1=O [Compound 30, (R)-5-((1-((7-ethyl-6-oxo-5,6-dihydro-1,5-naphthyridin-3-yl)methyl)pyrrolidin-3-yl)oxy)-N,6-dimethylpicolinamide]
0.0044	> 10	> 1					CCc1cc2ncc(CN3CC(Oc4ccc(C(=O)NC)nc4C)C3)cc2[nH]c1=O [Compound 44, 5-((1-((7-ethyl-6-oxo-5,6-dihydro-1,5-naphthyridin-3-yl)methyl)azetidin-3-yl)oxy)-N,6-dimethylpicolinamide]
0.00212		0.0385					CCc1nc2ccc(C(C)N3CC(Oc4ccc(-n5ccnn5)nc4)C3)cc2[nH]c1=O (stereo not shown) [Compound 54, 7-(1-(3-((6-(1H-1,2,3-triazol-1-yl)pyridin-3-yl)oxy)azetidin-1-yl)ethyl)-3-ethylquinoxalin-2(1H)-one]
0.0281		0.554	1.5	9.92	14.8		CCc1nc2ccc(C(C)N3CC(Oc4ccc(C(=O)NC)nc4F)C3)c(F)c2[nH]c1=O (stereo not shown) [Compound 55, 5-((1-(1-(2-ethyl-5-fluoro-3-oxo-3,4-dihydroquinoxalin-6-yl)ethyl)azetidin-3-yl)oxy)-6-fluoro-N-methylpicolinamide]
0.0447	> 10	> 1					CCc1cc2ncc(CN3CC[C@H](Oc4ccc(C(=O)NC)nc4)C3)cc2[nH]c1=O [Compound 58, (S)-5-((1-((7-ethyl-6-oxo-5,6-dihydro-1,5-naphthyridin-3-yl)methyl)pyrrolidin-3-yl)oxy)-N-methylpicolinamide]
		0.0016	12.7	2.46	31.2		CCc1cc2cnc(CN3CC[C@@H](Oc4ccc(C(=O)NC)nc4F)C3)cc2[nH]c1=O [Compound 62, (R)-5-((1-((3-ethyl-2-oxo-1,2-dihydro-1,6-naphthyridin-7-yl)methyl)pyrrolidin-3-yl)oxy)-6-fluoro-N-methylpicolinamide]
